Experimental data from US20250064773A1, “TARGETING ERO1 ALPHA WITH AURONE DERIVATIVES” (West Virginia University Board of Governors on behalf of …, priority 2021, published 2025).

Legend:
purified human ERO1α = target: T1, purified human ERO1α (Homo sapiens, UniProt Q96HE7, C104A/C131A/C166A); assay: Lineweaver-Burk enzyme kinetics with varying PDI (Amplex Red); assay type: biochemical; conditions: varying PDI and T151742 concentrations
T1 construct: made in house
T1 sequence (Q96HE7 22-468 C104A/C131A/C166A): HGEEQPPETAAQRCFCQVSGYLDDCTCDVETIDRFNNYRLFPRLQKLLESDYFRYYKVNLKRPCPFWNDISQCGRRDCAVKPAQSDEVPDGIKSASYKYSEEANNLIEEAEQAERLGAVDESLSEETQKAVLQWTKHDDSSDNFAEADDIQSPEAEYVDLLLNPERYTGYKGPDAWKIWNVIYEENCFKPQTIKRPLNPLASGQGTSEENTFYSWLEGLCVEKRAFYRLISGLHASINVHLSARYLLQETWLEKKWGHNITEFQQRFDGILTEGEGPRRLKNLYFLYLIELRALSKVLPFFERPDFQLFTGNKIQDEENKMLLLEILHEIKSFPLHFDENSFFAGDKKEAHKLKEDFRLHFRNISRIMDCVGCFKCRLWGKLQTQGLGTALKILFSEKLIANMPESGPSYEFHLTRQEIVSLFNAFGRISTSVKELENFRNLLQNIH

HCC4006 = assay: MTT viability assay, HCC4006; assay type: cell-based; conditions: Homo sapiens, NSCLC (adenocarcinoma), read-out: IC50 Avg ± s.d. (n = 3), HCC4006
Excerpt: Cell Lines: PC-9 cell line used was obtained from Sigma Aldrich and grown in RPMI 1640 medium with 10% fetal bovine serum and 1% penicillin/streptomycin. HCC4006, U266, MM1.s, and Beas-2B cell lines were obtained from ATCC and cultured in either RPMI 1640 or DMEM with 10% fetal bovine serum and 1% penicillin/streptomycin. All cell lines were also checked for mycoplasma every six months and subjected to short tandem repeat (STR) analysis for cell line validation. CRISPR Cas9: CRISPR Guide RNA 2 targeting ERO1α and CRISPR Guide RNA 4 were purchased from Genscript in the pLentiCRISPR V2 plasmid containing puromycin/ampicillin selection marker. Lentivirus was made from HEK 293T cells by co-transfection with GuideRNA of interest, pVSVG, and pPAX2 plasmids. […] Plate was then read on the BioTek Cytation 5 at 530/590 nm. […] Plate was then read at 570 nm. Treated wells were all compared to DMSO control wells to calculate percent growth inhibition and the IC50 was calculated using GraphPad (log(inhibitor) vs growth inhibition). […] Images were then quantified using ImageJ. […] Cells were aliquoted at 1 million cells per PCR tube in PBS and heated in Bio-Rad T100 thermal cycler at indicated temperatures (RT, 46° C., 48° C., 50° C., 52° C., 54° C., 56°, 58° C., and 60° C.) for 3 minutes and aggregation temperature was determined by western blot analysis. […]

CN(C)c1ccc(/C=C2\Oc3cc(O)ccc3C2=O)cc1 [Compound T151742]
mechanism of inhibition of ERO1α (purified human ERO1α): non-competitive (mixed) inhibitor
IC50 (HCC4006): 18.5 ± 14.7 µM
